In assay [1] the test system is Tyrosine-protein kinase JAK2 (Homo sapiens), O60674 [V617F]. Put plainly: (§1) Selectivity interaction (SelectScreen profiling (Invitrogen)) EUB0000607a JAK2. The following applies: at 2 µM.
Assay [2] deals with Tyrosine-protein kinase JAK2 (Homo sapiens, UniProt O60674). The description is as §1. The following applies: at 2 µM.
The target of assay [3] is Tyrosine-protein kinase ABL1 (Homo sapiens, UniProt P00519). Put plainly: Selectivity interaction (Kinase panel (DSF assay)) EUB0001558a ABL1. (In general: In DSF a fluorescence change marks the thermal transition of the protein.)
Tyrosine-protein kinase ABL1, sequence (P00519 whole entry): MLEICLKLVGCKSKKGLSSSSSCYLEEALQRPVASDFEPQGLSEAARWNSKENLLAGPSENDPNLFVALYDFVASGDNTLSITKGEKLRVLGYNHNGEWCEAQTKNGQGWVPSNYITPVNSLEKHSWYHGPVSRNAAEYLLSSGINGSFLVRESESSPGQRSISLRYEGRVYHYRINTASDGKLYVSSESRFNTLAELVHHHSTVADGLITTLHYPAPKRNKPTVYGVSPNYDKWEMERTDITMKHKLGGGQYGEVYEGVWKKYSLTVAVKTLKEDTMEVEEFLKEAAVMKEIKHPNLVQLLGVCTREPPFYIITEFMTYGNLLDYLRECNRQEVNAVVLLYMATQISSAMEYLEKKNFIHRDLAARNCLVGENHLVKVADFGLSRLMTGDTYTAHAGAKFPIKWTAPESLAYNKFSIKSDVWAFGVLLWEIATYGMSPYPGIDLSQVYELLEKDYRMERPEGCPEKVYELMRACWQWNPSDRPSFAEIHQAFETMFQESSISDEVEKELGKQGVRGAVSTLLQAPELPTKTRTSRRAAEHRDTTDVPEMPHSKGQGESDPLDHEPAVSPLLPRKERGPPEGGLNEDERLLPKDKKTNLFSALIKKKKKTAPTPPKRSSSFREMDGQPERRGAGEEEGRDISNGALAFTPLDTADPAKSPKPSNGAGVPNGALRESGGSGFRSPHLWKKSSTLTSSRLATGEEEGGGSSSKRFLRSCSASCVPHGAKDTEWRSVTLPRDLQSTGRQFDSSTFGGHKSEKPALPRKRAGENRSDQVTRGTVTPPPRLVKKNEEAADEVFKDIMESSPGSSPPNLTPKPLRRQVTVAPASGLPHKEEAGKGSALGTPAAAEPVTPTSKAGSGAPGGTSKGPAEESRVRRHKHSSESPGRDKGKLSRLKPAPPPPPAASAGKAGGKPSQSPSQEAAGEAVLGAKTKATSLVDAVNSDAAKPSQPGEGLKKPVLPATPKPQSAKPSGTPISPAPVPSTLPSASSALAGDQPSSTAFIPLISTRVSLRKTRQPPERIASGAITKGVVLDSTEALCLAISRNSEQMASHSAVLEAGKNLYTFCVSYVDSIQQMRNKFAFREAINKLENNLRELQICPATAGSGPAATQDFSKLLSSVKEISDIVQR
Assay [4] deals with Homeodomain-interacting protein kinase 1 (Homo sapiens, UniProt Q86Z02). Briefly: Selectivity interaction (KinomeScan (DiscoverX)) EUB0000655a HIPK1. The following applies: at 10 µM.
Homeodomain-interacting protein kinase 1, sequence (Q86Z02 whole entry, looked up): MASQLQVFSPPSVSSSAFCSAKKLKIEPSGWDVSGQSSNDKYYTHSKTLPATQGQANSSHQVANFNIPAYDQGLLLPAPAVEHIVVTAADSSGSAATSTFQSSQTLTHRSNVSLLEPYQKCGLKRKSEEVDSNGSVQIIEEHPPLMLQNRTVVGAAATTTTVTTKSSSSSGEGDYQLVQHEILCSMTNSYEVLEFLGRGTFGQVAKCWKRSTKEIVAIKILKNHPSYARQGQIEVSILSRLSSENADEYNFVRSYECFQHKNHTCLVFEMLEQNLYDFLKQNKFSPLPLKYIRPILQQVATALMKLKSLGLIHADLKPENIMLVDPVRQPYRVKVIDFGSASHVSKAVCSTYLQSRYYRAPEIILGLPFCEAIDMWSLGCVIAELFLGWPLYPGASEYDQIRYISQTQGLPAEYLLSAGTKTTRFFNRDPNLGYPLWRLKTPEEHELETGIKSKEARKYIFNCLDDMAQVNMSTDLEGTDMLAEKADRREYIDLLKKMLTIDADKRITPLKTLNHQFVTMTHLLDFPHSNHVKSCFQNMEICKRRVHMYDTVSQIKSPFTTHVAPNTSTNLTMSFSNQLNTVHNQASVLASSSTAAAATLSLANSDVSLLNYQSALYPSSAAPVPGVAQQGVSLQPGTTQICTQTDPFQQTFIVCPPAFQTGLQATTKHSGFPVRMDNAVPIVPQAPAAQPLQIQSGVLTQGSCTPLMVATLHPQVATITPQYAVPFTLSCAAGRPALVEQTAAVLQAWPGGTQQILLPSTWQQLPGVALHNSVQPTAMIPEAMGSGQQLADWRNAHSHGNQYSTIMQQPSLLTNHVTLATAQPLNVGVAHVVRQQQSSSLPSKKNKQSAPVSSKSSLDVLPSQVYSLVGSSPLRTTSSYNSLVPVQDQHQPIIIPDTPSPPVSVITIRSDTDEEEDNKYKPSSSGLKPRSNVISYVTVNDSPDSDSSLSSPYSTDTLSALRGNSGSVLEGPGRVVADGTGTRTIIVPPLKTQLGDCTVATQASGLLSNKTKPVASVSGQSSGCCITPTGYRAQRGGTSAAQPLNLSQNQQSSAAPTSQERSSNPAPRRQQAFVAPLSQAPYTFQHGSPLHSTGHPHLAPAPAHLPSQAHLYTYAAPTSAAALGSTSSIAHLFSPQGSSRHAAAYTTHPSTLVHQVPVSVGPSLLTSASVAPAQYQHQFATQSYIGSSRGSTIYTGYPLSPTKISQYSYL
Assay [5] has as its target Phosphatidylinositol 4-kinase beta (Homo sapiens, UniProt Q9UBF8). Briefly: Selectivity interaction (Kinase panel (Invitrogen)) EUB0000639a PI4KB. Conditions: at 200 nM.
For assay [6], the target named is STE20/SPS1-related proline-alanine-rich protein kinase (Homo sapiens) (UniProt Q9UEW8). Put plainly: Selectivity interaction (ActivX KiNativ screen (kinase selectivity in THP-1 cell lysates)) EUB0000639a STK39. It is filed as subcellular. The following applies: lysate.
In assay [7] the target is T1, cGMP-dependent protein kinase 1 (Homo sapiens) (UniProt Q13976).
T1 sequence (whole entry): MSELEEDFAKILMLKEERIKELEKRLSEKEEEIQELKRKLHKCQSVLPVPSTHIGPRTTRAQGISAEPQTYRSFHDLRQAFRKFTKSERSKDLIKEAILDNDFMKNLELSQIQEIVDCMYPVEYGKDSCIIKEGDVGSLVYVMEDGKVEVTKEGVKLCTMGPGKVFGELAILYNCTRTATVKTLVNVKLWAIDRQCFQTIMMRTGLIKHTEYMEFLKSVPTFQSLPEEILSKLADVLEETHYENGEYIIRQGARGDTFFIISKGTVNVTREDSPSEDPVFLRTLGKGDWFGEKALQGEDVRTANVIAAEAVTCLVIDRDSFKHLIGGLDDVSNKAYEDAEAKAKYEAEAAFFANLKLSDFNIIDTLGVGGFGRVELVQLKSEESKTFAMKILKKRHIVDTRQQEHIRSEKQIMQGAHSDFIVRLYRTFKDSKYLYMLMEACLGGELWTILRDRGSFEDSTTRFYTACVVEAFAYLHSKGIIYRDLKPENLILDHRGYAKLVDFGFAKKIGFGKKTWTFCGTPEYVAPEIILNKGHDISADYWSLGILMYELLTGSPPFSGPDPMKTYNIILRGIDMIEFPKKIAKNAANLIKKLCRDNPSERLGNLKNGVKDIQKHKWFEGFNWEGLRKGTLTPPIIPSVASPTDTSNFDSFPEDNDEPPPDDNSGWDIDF
Conditions: at 10 µM.

Assay [8] concerns the target T2, Serine/threonine-protein kinase TNNI3K (Homo sapiens) (UniProt Q59H18).
T2 sequence (whole entry): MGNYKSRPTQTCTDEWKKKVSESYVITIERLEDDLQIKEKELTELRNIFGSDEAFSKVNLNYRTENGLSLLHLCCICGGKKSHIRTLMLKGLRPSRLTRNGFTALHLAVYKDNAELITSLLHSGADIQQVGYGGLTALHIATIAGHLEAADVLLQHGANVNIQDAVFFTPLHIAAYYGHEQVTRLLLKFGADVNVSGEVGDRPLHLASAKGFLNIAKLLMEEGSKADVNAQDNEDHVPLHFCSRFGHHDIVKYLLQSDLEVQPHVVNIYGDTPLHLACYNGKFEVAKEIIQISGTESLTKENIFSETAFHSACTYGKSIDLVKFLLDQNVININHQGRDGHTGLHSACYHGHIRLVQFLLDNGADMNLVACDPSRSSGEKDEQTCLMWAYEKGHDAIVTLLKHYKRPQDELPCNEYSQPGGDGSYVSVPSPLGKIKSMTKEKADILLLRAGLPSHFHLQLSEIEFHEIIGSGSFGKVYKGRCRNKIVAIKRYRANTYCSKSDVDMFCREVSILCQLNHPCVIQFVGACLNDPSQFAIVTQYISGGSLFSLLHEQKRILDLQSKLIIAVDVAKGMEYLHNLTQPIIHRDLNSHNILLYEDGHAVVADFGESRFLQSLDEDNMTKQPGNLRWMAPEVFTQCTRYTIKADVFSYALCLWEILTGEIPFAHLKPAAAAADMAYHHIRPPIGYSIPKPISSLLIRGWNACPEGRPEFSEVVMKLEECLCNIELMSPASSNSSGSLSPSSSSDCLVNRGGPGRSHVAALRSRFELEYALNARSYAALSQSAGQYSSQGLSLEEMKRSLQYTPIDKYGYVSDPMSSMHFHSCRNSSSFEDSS
Briefly: Selectivity interaction (KinomeScan (DiscoverX)) EUB0001049a TNNI3K. Conditions: at 1 µM.

The target of assay [9] is Wee1-like protein kinase (Homo sapiens) (UniProt P30291). Briefly: Selectivity interaction (ProQinase) EUB0000171b WEE1.
Wee1-like protein kinase (Homo sapiens), sequence (P30291 whole entry, looked up): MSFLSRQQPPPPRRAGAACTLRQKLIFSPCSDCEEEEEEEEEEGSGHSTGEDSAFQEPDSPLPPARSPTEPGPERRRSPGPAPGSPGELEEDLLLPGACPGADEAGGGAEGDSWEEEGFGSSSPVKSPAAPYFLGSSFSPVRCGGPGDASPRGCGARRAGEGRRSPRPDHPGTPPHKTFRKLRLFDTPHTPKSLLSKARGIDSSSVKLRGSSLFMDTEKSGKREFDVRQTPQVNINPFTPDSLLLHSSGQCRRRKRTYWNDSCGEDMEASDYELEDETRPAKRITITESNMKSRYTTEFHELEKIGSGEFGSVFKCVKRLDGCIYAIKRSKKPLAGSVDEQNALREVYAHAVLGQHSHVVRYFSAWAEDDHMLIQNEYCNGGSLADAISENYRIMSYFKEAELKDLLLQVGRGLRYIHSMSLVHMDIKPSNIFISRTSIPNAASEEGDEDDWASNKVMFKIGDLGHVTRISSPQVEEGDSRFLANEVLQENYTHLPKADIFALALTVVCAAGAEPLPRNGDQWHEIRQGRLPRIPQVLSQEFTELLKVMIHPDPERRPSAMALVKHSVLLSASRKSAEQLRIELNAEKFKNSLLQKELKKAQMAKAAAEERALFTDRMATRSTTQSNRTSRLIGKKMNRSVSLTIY
The target in assay [10] is Histone-lysine N-methyltransferase SUV39H2 (Homo sapiens) (UniProt Q9H5I1). Put plainly: Selectivity interaction (Transferase panel (protein, RNA, and DNA methyltransferases. and EP300 (acetyltransferase))) EUB0000270b SUV39H2.
Histone-lysine N-methyltransferase SUV39H2 (Homo sapiens), sequence (Q9H5I1 whole entry): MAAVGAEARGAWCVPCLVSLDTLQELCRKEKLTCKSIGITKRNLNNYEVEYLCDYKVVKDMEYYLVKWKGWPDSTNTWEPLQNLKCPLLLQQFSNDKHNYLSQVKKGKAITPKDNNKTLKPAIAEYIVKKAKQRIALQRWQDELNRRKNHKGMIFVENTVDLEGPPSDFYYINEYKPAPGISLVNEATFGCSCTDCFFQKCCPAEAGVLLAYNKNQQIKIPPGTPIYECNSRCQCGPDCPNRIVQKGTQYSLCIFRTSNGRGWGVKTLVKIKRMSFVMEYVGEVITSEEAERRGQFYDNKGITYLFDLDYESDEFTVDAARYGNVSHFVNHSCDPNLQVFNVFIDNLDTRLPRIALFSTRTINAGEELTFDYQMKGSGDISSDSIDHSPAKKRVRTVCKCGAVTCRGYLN
Assay [11] deals with T3, Serine/threonine-protein kinase tousled-like 1 (Homo sapiens) (UniProt Q9UKI8).
T3 sequence (whole entry): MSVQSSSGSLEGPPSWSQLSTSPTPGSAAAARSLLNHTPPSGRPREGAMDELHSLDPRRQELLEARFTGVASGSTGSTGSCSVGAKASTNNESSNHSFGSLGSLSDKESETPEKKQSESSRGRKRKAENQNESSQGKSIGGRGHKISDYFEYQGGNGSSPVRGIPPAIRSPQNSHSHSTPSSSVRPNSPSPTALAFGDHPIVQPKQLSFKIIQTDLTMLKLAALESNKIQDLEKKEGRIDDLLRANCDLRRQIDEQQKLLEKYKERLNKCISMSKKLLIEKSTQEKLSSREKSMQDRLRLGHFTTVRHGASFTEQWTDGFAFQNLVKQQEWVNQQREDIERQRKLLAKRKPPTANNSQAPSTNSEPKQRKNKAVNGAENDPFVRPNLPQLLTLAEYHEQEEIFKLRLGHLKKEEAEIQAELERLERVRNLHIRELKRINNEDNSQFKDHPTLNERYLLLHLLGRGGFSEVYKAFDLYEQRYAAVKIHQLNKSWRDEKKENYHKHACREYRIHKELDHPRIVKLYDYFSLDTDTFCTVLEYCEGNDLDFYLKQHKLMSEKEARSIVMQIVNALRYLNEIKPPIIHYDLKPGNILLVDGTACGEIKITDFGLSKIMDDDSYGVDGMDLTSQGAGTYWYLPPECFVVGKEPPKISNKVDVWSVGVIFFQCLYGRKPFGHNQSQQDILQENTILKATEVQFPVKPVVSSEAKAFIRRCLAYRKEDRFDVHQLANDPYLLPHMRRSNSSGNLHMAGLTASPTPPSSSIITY
Briefly: Selectivity interaction (KinomeScan (DiscoverX)) EUB0000092b TLK1. Conditions: at 10 µM.

Phosphatidylinositol 4-kinase beta, sequence (Q9UBF8 2-816 limits assumed): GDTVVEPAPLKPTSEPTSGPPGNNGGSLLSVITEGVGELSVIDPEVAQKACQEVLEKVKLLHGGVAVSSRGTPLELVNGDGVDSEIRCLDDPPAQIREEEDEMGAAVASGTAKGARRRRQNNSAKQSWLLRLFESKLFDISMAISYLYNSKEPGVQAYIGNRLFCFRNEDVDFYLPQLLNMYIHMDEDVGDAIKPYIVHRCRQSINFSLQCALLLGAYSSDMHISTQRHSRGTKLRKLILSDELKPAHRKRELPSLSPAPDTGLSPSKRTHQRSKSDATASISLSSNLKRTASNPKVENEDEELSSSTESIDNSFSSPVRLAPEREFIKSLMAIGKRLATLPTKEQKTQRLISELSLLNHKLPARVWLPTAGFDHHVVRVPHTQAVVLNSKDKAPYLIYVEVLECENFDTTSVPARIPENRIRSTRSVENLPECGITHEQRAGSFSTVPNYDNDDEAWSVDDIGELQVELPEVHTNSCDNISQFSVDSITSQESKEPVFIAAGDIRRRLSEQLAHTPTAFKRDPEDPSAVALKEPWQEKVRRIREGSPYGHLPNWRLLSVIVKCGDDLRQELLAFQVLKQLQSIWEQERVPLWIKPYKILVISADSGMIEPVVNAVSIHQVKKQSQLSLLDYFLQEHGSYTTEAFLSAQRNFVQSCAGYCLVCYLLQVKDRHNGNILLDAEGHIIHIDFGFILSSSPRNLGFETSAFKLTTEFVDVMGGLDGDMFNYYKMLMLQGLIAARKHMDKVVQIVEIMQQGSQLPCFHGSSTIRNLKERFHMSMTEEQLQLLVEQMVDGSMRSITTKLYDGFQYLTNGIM

As to `CNC(=O)Nc1ccc(-c2nc(N3CC4CCC(C3)O4)c3cnn(C4CCC5(CC4)OCCO5)c3n2)cc1`, the results for the % of inhibition in assay [1] and in assay [2] were 4% and -3%, respectively.
Consider `CC(C)(O)[C@H](F)CN1Cc2cc(NC(=O)c3cnn4cccnc34)c(N3CCOCC3)cc2C1=O`, for which the dTM in [3] is 1.7 K.
On to `CN(C)CCOc1ccc(-c2nc(-c3ccncc3)c(-c3ccc4c(c3)CC/C4=N\O)[nH]2)cc1`, for which the % of control in [4] worked out at 11%.
With `CC[C@@H]1[C@H](F)C(=O)N[C@@H]1COc1nccc2cc(C(N)=O)c(OC)cc12` [ZIMLOVISERTIB], the % of inhibition in [5] was -0.901%; in assay [6] (at 0.01 µM), 3.8%; in [6] (at 0.04 µM), -1.3%; in assay [6] (at 0.2 µM) it was 2.2%; in assay [6] (at 1 µM) it was -9.4%; in [6] (at 5 µM) it was 1.5%.
In [7], `CCN(CC)CCCCNc1ncc2cc(-c3cc(OC)cc(OC)c3)c(NC(=O)NC(C)(C)C)nc2n1` gave a % of control of 100%.
As to `COc1cc(Nc2nc(C)cc(-c3cnn4nc(OC)ccc34)n2)cc(C(F)(F)F)c1`, in assay [8], the % of control came to 100%.
Turning to `C=CC(=O)Nc1cccc(C(=O)Nc2ccc(Nc3cc(-c4[nH]c(SC)nc4C)ccn3)cc2)c1`, the results for the % of control in assay [9] (at 1 µM) and in assay [9] (at 5 µM) were 73% and 79%, respectively.
As to `Cc1cc(CN)cc(C)c1-c1ncn(C)c1-c1cncn1C`, the % activity in assay [10] (at 1 µM) was more than 90%; in assay [10] (at 10 µM) it was more than 80%.
`CCC(=O)N1CCN(c2ccc(-n3c(=O)ccc4cnc5ccc(-c6cnc7ccccc7c6)cc5c43)cc2C(F)(F)F)CC1` yielded a % of control in [11] of 100%.
